According to PMC9822058, “In Vitro Evaluation of α-amylase and α-glucosidase Inhibition of 2,3-Epoxyprocyanidin C1 and Other Constituents from Pterocarpus erinaceus Poir” (Molecules, 2022):
Like-named read-outs stand apart in the source and are kept apart here.

Assays:
[1] = target: α-glucosidase from Saccharomyces cerevisiae; assay: α-glucosidase inhibitory assay (PNPG substrate); format: biochemical; conditions: for α-glucosidase (% inh. at 50 µg/mL): highest test concentration; for α-glucosidase inhibitory potential (in words): within the tested concentrations
Protocol: The α-glucosidase inhibitory activity was evaluated according to the method described previously. 50 µL of phosphate buffer (0.01 M pH 6.9), 10 µL of different concentrations of compound or extract solution, 50 µL of α-glucosidase from Saccharomyces cerevisiae in phosphate buffer (0.01 M pH 6.0) and PNPG (4-N-nitrophenyl-α-D-glucopyranoside) 25 µL in phosphate buffer (0.01 M pH 6.9) were mixed in a 96-well microplate. The solution was then incubated for 20 min at 37 °C.

[2] = target: α-amylase from Bacillus licheniformis (Bacillus licheniformis, UniProt P06278); assay: biochemical; format: biochemical; conditions: for inhibition at 50 µg/mL: read-out: α-amylase (% inh. at 50 µg/mL); for α-amylase inhibitory potential (in words): within the tested concentrations
Chain of α-amylase from Bacillus licheniformis (P06278 30-512): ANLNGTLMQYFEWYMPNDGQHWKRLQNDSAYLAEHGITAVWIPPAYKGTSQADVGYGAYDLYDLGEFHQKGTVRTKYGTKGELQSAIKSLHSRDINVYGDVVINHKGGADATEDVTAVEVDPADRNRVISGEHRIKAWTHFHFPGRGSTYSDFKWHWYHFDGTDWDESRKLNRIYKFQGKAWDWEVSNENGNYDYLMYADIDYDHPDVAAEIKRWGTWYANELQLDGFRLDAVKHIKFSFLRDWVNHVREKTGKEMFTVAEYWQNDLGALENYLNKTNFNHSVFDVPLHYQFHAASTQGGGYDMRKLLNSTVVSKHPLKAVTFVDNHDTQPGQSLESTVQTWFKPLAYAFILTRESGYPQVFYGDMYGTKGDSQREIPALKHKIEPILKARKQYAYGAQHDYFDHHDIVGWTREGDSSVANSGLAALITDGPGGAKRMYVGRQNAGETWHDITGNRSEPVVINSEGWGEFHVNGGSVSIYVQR
Protocol: The α-amylase inhibitory activity was evaluated by using the starch– iodine method with some modifications. The enzyme α-amylase from Bacillus licheniformis was used and enzyme solution was prepared with phosphate buffer (20 mM pH = 6.9 phosphate buffer prepared with 6 mM NaCl); then, 50 µL of α-amylase and 25 µL of different concentrations of compound or extract solutions were mixed in a 96-well microplate. The mixture was pre-incubated for 10 min at 37 °C; then, 50 µL of starch solution (0.05%) was added and incubated for 10 min at 37 °C. Following incubation, the reaction was completed by adding HCl (0.1 M, 25 µL) and Lugol (100 µL) solutions, and the absorbance was recorded at 565 nm.

STZ-induced diabetes = conditions: doses of 20 and 40 mg/kg; cited from earlier work
[3] = read-out: α-amylase IC50 (converted)

Compound | α-glucosidase IC50 [1] [µg/mL] | α-glucosidase (% inh. at 50 µg/mL) [1] [%] | inhibition at 50 µg/mL [2] [%] | IC50 [2, 3] [µM] | IC50 [2] [µM] | α-glucosidase inhibitory potential (in words) [1] | α-amylase inhibitory potential (in words) [2] | antidiabetic potential in STZ-induced diabetic rats (STZ-induced diabetes)
COc1ccc2c(=O)c(-c3ccc(O)cc3)coc2c1 [compound 6, 7-methoxydaidzein] | 46.3 ± 0.2 | 51.8 ± 0.9 | 34.2 ± 0.5 | > 186 |  |  |  | 
O=C1C[C@@H](c2ccc(O)cc2)Oc2cc(O[C@@H]3O[C@H](CO)[C@@H](O)[C@H](O)[C@H]3O)cc(O)c21 [compound 9, naringenin 7-O-β-D-glucopyranoside] | 44.8 ± 0.6 | 53.7 ± 0.4 | 50.5 ± 1.2 |  |  |  |  | 
C[C@H]1O[C@H](O[C@H]2[C@H](O)[C@@H](O)[C@@H](O[C@H]3[C@H](O)[C@@H](O)C(O)O[C@@H]3CO)O[C@@H]2CO)[C@H](O)[C@@H](O)[C@@H]1N[C@H]1C=C(CO)[C@@H](O)[C@H](O)[C@H]1O (some centres unmarked) [Acarbose, reference compound] |  | 81.7 ± 0.8 | 72.5 ± 1.5 |  |  |  |  | 
O=C(O)[C@H]1O[C@@H](Oc2cc(O)c3c(=O)cc(-c4ccc(O)cc4)oc3c2)[C@H](O)[C@@H](O)[C@@H]1O [compound 8, apigenin 7-O-glucoronide] | 40.9 ± 1.3 | 55.2 ± 1.1 | 50.9 ± 0.8 | 109 |  |  |  | 
COc1cc(O)c2c(=O)c(-c3ccc(O)cc3)coc2c1 [compound 5, 7-methoxygenistein] | 47.6 ± 0.9 | 50.6 ± 1.2 | 32.2 ± 1 |  | > 176 |  |  | 
C=C(C)[C@@H]1CC[C@]2(CO)CC[C@]3(C)[C@H](CC[C@@H]4[C@@]5(C)CC[C@H](O)C(C)(C)[C@@H]5CC[C@]43C)[C@@H]12 [compound 3, betulin] | >50 | 28.5 ± 0.3 | 19.3 ± 0.4 |  | > 113 | relatively low | relatively low | 
COc1c(-c2ccc(O)c(O)c2)oc2cc(O)cc(O)c2c1=O [compound 7, 3-O-methyl quercetin] | 39.5 ± 1.2 | 54.0 ± 1.0 | 50.2 ± 2 | 152 |  |  |  | 
Oc1cc(O)c2c(c1)OC1(c3ccc(O)c(O)c3)OC1C2c1c(O)cc(O)c2c1OC(c1ccc(O)c(O)c1)C(O)C2c1c(O)cc(O)c2c1OC(c1ccc(O)c(O)c1)C(O)C2 (centres unmarked) [compound 1, 2,3-Epoxyprocyanidin C1] | 41.6 ± 1.0 | 53.4 ± 1.6 | 34.3 ± 0.7 | > 57.8 |  |  |  | 
C[C@H]1C(=O)CC[C@@H]2[C@]1(C)CC[C@H]1[C@@]2(C)CC[C@@]2(C)[C@@H]3CC(C)(C)CC[C@]3(C)CC[C@]12C [compound 2, friedelin] | >50 | 32.1 ± 0.1 | 21.5 ± 0.6 |  | > 117 | relatively low | relatively low | antidiabetic potential
COc1cc2c(=O)oc3c(OC)c(OC4OC(COC5OC(C)C(O)C(O)C5O)C(O)C(O)C4O)cc4c(=O)oc(c1OC)c2c34 (centres unmarked) [compound 10, 3,3′,4-Trimethoxy-4′-rutinosylellagic acid] | 45.0 ± 0.8 | 51.8 ± 0.9 | 45.4 ± 0.3 | > 76.6 |  |  |  | 
COc1ccc(C(C)C(=O)c2ccc(O)cc2O)cc1 (centres unmarked) [compound 4, angolensin] | 43.4 ± 0.5 | 54.1 ± 1.3 | 33.7 ± 0.5 | > 184 |  |  |  | 
COc1cc2c(=O)oc3c(OC)c(OC4OC(COC5OC(C)C(OC(C)=O)C(OC(C)=O)C5OC(C)=O)C(OC(C)=O)C(OC(C)=O)C4OC(C)=O)cc4c(=O)oc(c1OC)c2c34 (centres unmarked) [compound 11, 3,3′,4-Trimethoxy-4′-hexaacetylrutinosylellagic acid] | 47.5 ± 0.4 | 50.7 ± 0.2 | 43.5 ± 0.6 | > 55.3 |  |  |  | 
